Experimental data: the supplement of paper PMC10883282

Tests used:
Test in all cases: relative viability vs DMSO control (72 h) (fraction); higher = more viable cells
RD-ES = test system: RD-ES
In short: (§1)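 Densities for seeding sarcoma cell lines into 384-well plates were set to give 80–90% confluence. After 24 h, 2.5 µl of serially diluted compound from source plates of 10 mM to 0.0002 mM went in, and plates stayed 72 h at 37 °C in 5% CO2 with 0.1% DMSO vehicle and a 5 µM positive control. Percent growth from ATPLite readings, averaged over up to triplicate wells, served as relative viability, rescaled so 1 means full and 0 means none.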

SW684 = test system: SW684
In short: as §1

HT1080 = test system: HT1080
In short: as §1

SYO-1 = test system: SYO-1
In short: as §1

KHOS-NP = test system: KHOS-NP
In short: as §1

NC(=O)c1cccc2cn(-c3ccc([C@@H]4CCCNC4)cc3)nc12 [Niraparib]
relative viability
Conditions | HT1080 | KHOS-NP | RD-ES | SW684 | SYO-1
0.00017 µM | 1.06 | 1.05 | 0.997 | 1.14 | 0.951
0.00051 µM | 1.05 | 1.04 | 1.01 | 1.15 | 0.965
0.00152 µM | 1.01 | 1.04 | 0.9697 | 1.17 | 0.95
0.00457 µM | 1.04 | 1.06 | 0.988 | 1.13 | 0.946
0.01372 µM | 1.01 | 1.045 | 0.966 | 1.09 | 0.927
0.04115 µM | 1.01 | 1.04 | 0.966 | 1.13 | 0.861
0.1235 µM | 1.041 | 1.06 | 0.962 | 1.14 | 0.832
0.3704 µM | 1.02 | 1.08 | 0.899 | 1.1 | 0.765
1.111 µM | 1.09 | 1.05 | 0.783 | 1.13 | 0.664
3.333 µM | 1.09 | 1.079 | 0.504 | 1.17 | 0.522
10 µM | 1.03 | 1.04 | 0.0364 | 1.09 | 0.29

C=CC(=O)Nc1cc(Nc2nccc(-c3cn(C)c4ccccc34)n2)c(OC)cc1N(C)CCN(C)C [Osimertinib]
relative viability
Conditions | HT1080 | KHOS-NP | RD-ES | SW684 | SYO-1
0.00017 µM | 1.08 | 1.1 | 0.962 | 1.11 | 1.02
0.00051 µM | 1.09 | 1.11 | 0.978 | 1.18 | 0.992
0.00152 µM | 1.06 | 1.084 | 0.977 | 1.21 | 0.969
0.00457 µM | 1.06 | 1.08 | 0.971 | 1.2 | 0.971
0.01372 µM | 1.04 | 1.07 | 0.979 | 1.16 | 0.935
0.04115 µM | 1.06 | 1.06 | 0.964 | 1.13 | 0.9
0.1235 µM | 1.07 | 1.06 | 0.947 | 1.13 | 0.847
0.3704 µM | 1.03 | 1.05 | 0.892 | 1.12 | 0.713
1.111 µM | 0.992 | 1.05 | 0.775 | 1.11 | 0.576
3.333 µM | 0.935 | 1.02 | 0.598 | 0.984 | 0.418
10 µM | 0.0308 | 0.505 | 0.0212 | 0.063 | -0.0037

C1=N/C2=N/c3ccc(OCCN4CCCC4)c(c3)COC/C=C/COCc3cccc(c3)C(=C1)N2 [Pacritinib]
relative viability
Conditions | HT1080 | KHOS-NP | RD-ES | SW684 | SYO-1
0.00017 µM | 1.09 | 1.09 | 1 | 1.14 | 1.01
0.00051 µM | 1.07 | 1.12 | 1.03 | 1.17 | 1.01
0.00152 µM | 1.09 | 1.107 | 1.04 | 1.15 | 0.997
0.00457 µM | 1.09 | 1.11 | 1.01 | 1.19 | 0.985
0.01372 µM | 1.08 | 1.125 | 1.03 | 1.15 | 1.01
0.04115 µM | 1.09 | 1.117 | 1 | 1.11 | 0.952
0.1235 µM | 1.08 | 1.116 | 0.967 | 0.977 | 0.932
0.3704 µM | 1.12 | 1.112 | 0.821 | 0.781 | 0.748
1.111 µM | 0.925 | 0.996 | 0.437 | 0.544 | 0.244
3.333 µM | 0.169 | 0.451 | 0.109 | 0.189 | 0.0093
10 µM | 0.101 | 0.516 | 0.165 | 0.0544 | 0.00973

NC(=O)c1cnc2[nH]ccc2c1N[C@@H]1[C@@H]2CC3C[C@H]1C[C@@](O)(C3)C2 [Peficitinib]
relative viability
Conditions | HT1080 | KHOS-NP | RD-ES | SW684 | SYO-1
0.00017 µM | 1.058 | 1.09 | 0.973 | 1.08 | 1
0.00051 µM | 1.05 | 1.06 | 0.99 | 1.09 | 0.981
0.00152 µM | 1.06 | 1.08 | 0.968 | 1.11 | 0.985
0.00457 µM | 1.03 | 1.07 | 0.963 | 1.12 | 0.995
0.01372 µM | 1.03 | 1.05 | 0.984 | 1.12 | 0.975
0.04115 µM | 1.06 | 1.06 | 0.981 | 1.12 | 0.97
0.1235 µM | 1.06 | 1.07 | 1 | 1.12 | 0.953
0.3704 µM | 1.11 | 1.07 | 1.01 | 1.15 | 0.933
1.111 µM | 1.22 | 1.07 | 1 | 1.17 | 0.705
3.333 µM | 1.35 | 1.02 | 0.986 | 1.09 | 0.56
10 µM | 1.29 | 0.671 | 0.227 | 0.827 | 0.405

CCCCCCCCCCCCCCCCCCOP(=O)([O-])OC1CC[N+](C)(C)CC1 [Perifosine]
relative viability
Conditions | HT1080 | KHOS-NP | RD-ES | SW684 | SYO-1
0.00017 µM | 1.1 | 1.09 | 0.985 | 1.08 | 1.01
0.00051 µM | 1.083 | 1.1 | 1 | 1.16 | 1.012
0.00152 µM | 1.07 | 1.099 | 1.03 | 1.19 | 0.99
0.00457 µM | 1.06 | 1.11 | 1.002 | 1.14 | 1.01
0.01372 µM | 1.063 | 1.1 | 0.978 | 1.15 | 0.977
0.04115 µM | 1.06 | 1.08 | 0.989 | 1.18 | 0.965
0.1235 µM | 1.04 | 1.067 | 1.02 | 1.18 | 0.97
0.3704 µM | 1.0633 | 1.07 | 1.01 | 1.21 | 0.946
1.111 µM | 1.04 | 1.03 | 0.985 | 1.24 | 0.941
3.333 µM | 1.037 | 0.984 | 0.983 | 1.16 | 0.903
10 µM | 1.05 | 0.496 | 0.996 | 1.12 | 0.901

FC(F)(F)c1ccc(CNc2ccc(Cc3c[nH]c4ncc(Cl)cc34)cn2)cn1 [Pexidartinib]
relative viability
Conditions | HT1080 | KHOS-NP | RD-ES | SW684 | SYO-1
0.00017 µM | 1.14 | 1.106 | 0.973 | 1.14 | 1.03
0.00051 µM | 1.12 | 1.1 | 0.99 | 1.2 | 1.03
0.00152 µM | 1.12 | 1.084 | 1.01 | 1.19 | 0.953
0.00457 µM | 1.05 | 1.08 | 1.02 | 1.2 | 0.94
0.01372 µM | 1.1 | 1.07 | 1.02 | 1.15 | 0.927
0.04115 µM | 1.1 | 1.05 | 0.982 | 1.15 | 0.925
0.1235 µM | 1.06 | 1.05 | 1.01 | 1.16 | 0.868
0.3704 µM | 1.08 | 1.032 | 0.998 | 1.13 | 0.8
1.111 µM | 1.05 | 1.024 | 0.977 | 1.13 | 0.733
3.333 µM | 1.065 | 1.022 | 0.959 | 1.14 | 0.701
10 µM | 1.02 | 0.987 | 0.969 | 1.12 | 0.659

CCOc1cc2ncc(C#N)c(Nc3ccc(OCc4ccccn4)c(Cl)c3)c2cc1NC(=O)/C=C/[C@H]1CCCN1C [Pyrotinib]
relative viability
Conditions | HT1080 | KHOS-NP | RD-ES | SW684 | SYO-1
5.081 pM | 1.07 | 1.08 | 0.971 | 1.15 | 1.01
15.24 pM | 1.13 | 1.12 | 0.968 | 1.24 | 0.951
45.72 pM | 1.103 | 1.08 | 0.969 | 1.221 | 0.958
0.000137174 µM | 1.13 | 1.11 | 0.978 | 1.188 | 0.943
0.000411523 µM | 1.11 | 1.07 | 0.983 | 1.19 | 0.92
0.00123457 µM | 1.06 | 1.09 | 0.971 | 1.17 | 0.948
0.0037037 µM | 1.12 | 1.07 | 0.965 | 1.21 | 0.858
0.0111111 µM | 1.09 | 1.1 | 0.9672 | 1.19 | 0.9
0.0333333 µM | 1.078 | 1.073 | 0.953 | 1.15 | 0.896
0.1 µM | 1.07 | 1.09 | 0.955 | 1.17 | 0.862
0.3 µM | 1.08 | 1.08 | 0.95 | 1.1 | 0.89
